≈ marks a conversion by molar mass, not a printed value. Where two headings read alike, the source gives them in different places.
Experiments:
[1] = Aqueous solubility of saturated solution at 21 °C (phosphorus determination by molybdenum blue spectrophotometry)
Experimental: A Jasco V-530 UV/Vis spectrophotometer was used for phosphorus determination at 880 nm wavelength. Filtered liquid samples were diluted to the appropriate volume with Milli-Q water and were digested with the persulphate oxidation technique in acidic medium at elevated temperature to convert aminobisphosponates to orthophosphate. In an acidic medium, ammonium molybdate and antimony potassium tartrate react with orthophosphate to form a phosphomolybdic acid that is reduced to intensively colored molybdenum blue by ascorbic acid [30].
The mixture containing an excess of the studied compound was first agitated for predetermined time with magnetic stirrer and before taking the sample mixture was allowed to stand for 24 h without stirring. The sample (about 5 mL) was taken from liquid above the solids, pH was measured and the sample was filtered through 0.2 µm membrane filter to remove any possible insoluble particles. The phosphorus concentration in the filtered sample solution was determined by using the spectrophotometric method described above.

[2] = pKa determination with Sirius instrument (PCA200)
[3] = Thermal analysis (TG/DTA and TGA 7); format: physicochemical; conditions: for Td: 5 °C/min; for Temp. range of 1st cleavage: lower limit taken at 0.5 wt-%
Experimental: Thermal decomposition paths with evaluation of crystal water content were obtained parallel with two instruments; Perkin Elmer STA 6000 thermogravimetric TG/DTA and Perkin Elmer TGA 7 analyzers (Perkin Elmer, Massachusetts, USA). Measurements were carried out in an open platinum crucible (the higher 5 mm crucible was used in TG/DTA and a shallower 2 mm crucible in TGA 7) under air atmosphere (flow rate of 45 mL/min) with a heating rate of 5 °C/min over the temperature range of 25−700 °C. The temperature calibration of STA 6000 was made using melting points of indium (156.60 °C) and zinc (419.5 °C) standards. For TGA 7 magnetic Curie-point calibration technique (Alumel, Ni, Perkalloy, Fe) was used. The weight balance of both instruments was calibrated by measuring a standard weight of 50 mg at room temperature. The sample weights used in the measurements were about 4–8 mg, and for each bisphosphonate, it was attempted to keep the same on both instruments. The melting/dehydration/decomposition behavior of the compounds was also visually monitored using a Stuart Scientific SMP3 melting point apparatus.

[4] = Protonation constants by (traditional) potentiometric titration (TPT), SUPERQUAD; conditions: 0.1 M NaNO3, 25 °C; for pKa: aqueous 0.1 M NaNO3, log K, TPT
Text: Results were obtained from […] as overall stability constants (log β values); following the chosen zero level H2L^2−. This zero level H2L^2− was chosen in the calculations to avoid any accumulation of errors of protonation constants at different pH ranges. The log β results for reactions (4) and (5) obtained in the final refinements are listed in Table S3 (see Supporting Information) with error limits (±3σ), number of points/number of titrations and χ^2/Σ statistics.
The details of the experiments using (traditional) potentiometric titration are presented in the Supporting Information. The results of the determination by Sirius instrument are shown in the Supporting Information. Potentiometric titrations of the compounds were performed with the PCA200 apparatus (Sirius Analytical Instruments Ltd, Forest Row, East Sussex, UK).
Table S2. The effect of pH on aqueous solubility (mg/L) of aminoalkylbis(phosphonates) […]
Solubility (g/L) of Compound
Determination of the Protonation Constants Using (traditional) Potentiometric Titration. Reagents:
Aqueous 0.1 M NaOH was prepared from Titrisol ampoules (Merck) and 0.1 M HNO3 from Convol ampoules (BDH). The background solution was prepared by dissolving NaNO3 in deionised water.
The NaNO3 and NaCl used in reference electrode were p.a. grade (Merck). The water used in the dilutions and titration solutions was purified with Milli-RO and Milli-Q water purification systems […]
Potentiometric measurements: The protonation equilibria was studied in aqueous 0.1 M NaNO3 at 25.0 ± 0.1 °C through a series of potentiometric EMF titrations carried out with a Schott-Geräte GmbH […]
The cell arrangement for the measurement of the hydrogen ion concentration [H+] was as follows:
−RE […] equilibrium solution […] GE+ (1) where GE denotes a glass electrode (Schott N2680), and RE is Hg, Hg2Cl2 […] 0.01 M NaCl, 0.09 M NaNO3. Expression (2) is valid assuming that the activity coefficients are constant.
The cell parameter E0 and the liquid junction coefficient jH, valid in acidic solutions, were determined for each titration by adding a known amount of HNO3 to the background electrolyte. The value of the liquid junction coefficient jOH, valid in basic solutions, was determined periodically. Only stable EMF readings were used in the calculations.
During the measurements of the protonation equilibria, aqueous 0.1 M NaOH or 0.1 M HNO3 was […]
Four to eight independent titrations were carried out for each ligand. The number of data points used in […]
Data treatment: Protonation and deprotonation of the ligands were controlled by addition of HNO3 or NaOH. The curves of ZH versus pH were drawn to visualize the experimental data sets. ZH describes the average number of H+ ions added or liberated per mole of ligand and is given by the relationship […]
where CH denotes the total concentration of protons calculated over the zero level H2L2−.
In the evaluation of the equilibrium constants, the following two-component equilibria were utilized:
H2L2− ⇋ H2-xL(2+x)– + xH+ , x = 1–2; β–x (4) xH+ + H2L2− ⇋ Hx+2Lx–2, x = 1–3; βx (5)
Mathematical analysis of the systems involves a search for protonation models and equilibrium constants that best describe the experimental data. The calculations were carried out with the computer […]
1200). The sample standard deviation Σ and the χ2 statistics used as criteria in the selection of the models were those provided by the program. As a means to improve the confidence level, the error limits for log β values determined in this study are reported as three times the standard deviation estimated by the program.
Figure S2. ZH vs. pH for protonation of compounds (a) 1; (b) 2; (c) 3; (d) 4 and (e) 5.

[5] = cited from earlier work; for logK, pKa3: H2L2− + H+ ⇋ H3L−; for logK, pKa2: H3L− + H+ ⇋ H4L; for logK, pKa1: H4L + H+ ⇋ H5L+; for logK, pKa4: HL3− + H+ ⇋ H2L2−; for logK, pKa5: L4− + H+ ⇋ HL3−
[6] = overall protonation, zero level H2L2−

NCCC(O)(P(=O)(O)O)P(=O)(O)O [Compound 1, (3-Amino-1-hydroxypropylidene)bisphosphonic acid]
solubility at 30 min ([1]; Milli-Q water, unbuffered, 21 °C, water, thermodynamic from solid): 10.9 mg/mL (≈ 46.5 mM)
pH of saturated solution ([1]; saturated aqueous solution, 21 °C, agitation time 30 min): 4.62
water solubility (in words) ([1]; water): almost freely soluble
pKa 2 (Sirius) [2]: 2.32
pKa 3 (Sirius) [2]: 5.93
pKa 4 (Sirius) [2]: 10.05
pKa 5 (Sirius) [2]: 12.54
Onset temperature of first cleavage ([3]; TG/DTA, higher crucible): 149 °C
Td ([3]; TG/DTA, higher crucible, air): 149 °C
Temp. range of 1st cleavage ([3]; TG/DTA, higher crucible): 134–199 °C
Onset temperature of first cleavage ([3]; TGA 7, shallow crucible): 155 °C
Td ([3]; TGA 7, shallow crucible, air): 155 °C
Temp. range of 1st cleavage ([3]; TGA 7, shallow crucible): 102–203 °C
Td (decomposition onset) ([3]; average from both instruments, air, heating rate 5 °C/min): 152 °C
temperature of first decomposition step (cleavage of amino group / degradation) ([3]; thermogravimetry, air): 100–200 °C
pKa ([4]; pKa1 (H4L + H+ ⇋ H5L+), approximate values): 1.06
pKa ([4]; pKa2 (H3L− + H+ ⇋ H4L)): 1.7
pKa ([4]; pKa3 (H2L2− + H+ ⇋ H3L−)): 5.9
pKa ([4]; pKa4 (HL3− + H+ ⇋ H2L2−)): 10
pKa ([4]; pKa5 (L4− + H+ ⇋ HL3−)): 12.9
logβx ± 3σ, x = 1 (H3L−) [4, 6]: 5.90 ± 0.02
logβx ± 3σ, x = 2 (H4L) [4, 6]: 7.60 ± 0.05
logβx ± 3σ, x = 3 (H5L+) [4, 6]: 8.66 ± 0.30
logβx ± 3σ, x = −1 (HL3−) [4, 6]: −10.04 ± 0.03
logβx ± 3σ, x = −2 (L4−) [4, 6]: −22.90 ± 0.23
logK, pKa3 ([5]; first Ref.18 column): 6.01
logK, pKa3 ([5]; ref 4): 5.86
logK, pKa3 ([5]; ref 13): 5.83
logK, pKa3 ([5]; ref 14): 5.85
logK, pKa3 ([5]; ref 15): 6.01
logK, pKa3 ([5]; ref 17): 6.04
logK, pKa3 ([5]; second Ref.18 column): 5.39
logK, pKa2 ([5]; ref 4): 2.04
logK, pKa2 ([5]; ref 13): 2.55
logK, pKa2 ([5]; ref 14): 1.80
logK, pKa2 ([5]; ref 15): 2.56
logK, pKa2 ([5]; ref 17): 1.93
logK, pKa1 ([5]; ref 14): <1.2
logK, pKa1 ([5]; ref 17): 1.24
logK, pKa4 ([5]; first Ref.18 column): 9.97
logK, pKa4 ([5]; ref 4): 9.90
logK, pKa4 ([5]; ref 13): 9.9
logK, pKa4 ([5]; ref 14): 10.30
logK, pKa4 ([5]; ref 15): 9.80
logK, pKa4 ([5]; ref 17): 10.18
logK, pKa4 ([5]; second Ref.18 column): 9.46
logK, pKa5 ([5]; first Ref.18 column): 10.74
logK, pKa5 ([5]; ref 4): 11.02
logK, pKa5 ([5]; ref 13): 10.8
logK, pKa5 ([5]; ref 14): 13.06
logK, pKa5 ([5]; ref 15): 10.95
logK, pKa5 ([5]; ref 17): 12.14
logK, pKa5 ([5]; second Ref.18 column): 10.40
